Source: patent US10849854B2, “Process for preparing a composition comprising a high concentration of one or more avermectins” (GALDERMA SA, priority 2015, dated 2020)

Test: Solubility of ivermectin in propylene glycol/oleyl alcohol (1/1) solubilizing medium
Assay type: physicochemical
Settings: mixed propylene glycol/oleyl alcohol (1/1) solubilizing medium
From the text: Although these prior attempts have allowed formulating ivermectin in emulsions which remain stable despite temperature and/or pH variations, it has been observed that the amount of ivermectin that could be introduced into these emulsions was limited. Specifically, at most 33% by weight of ivermectin can be fully dissolved in a mixed propylene glycol/oleyl alcohol (1/1) solubilizing medium. Beyond this concentration, ivermectin tends to crystallize in the active phase before the emulsion is prepared and/or in the resulting emulsion, optionally when subjected to freeze/thaw cycles. Increasing the amount of glycols in the emulsion would raise other issues, since the emulsion stability would be detrimentally affected and the emulsion would become too sticky to be commercially acceptable. Therefore, from a practical point of view, it has not been possible so far to formulate emulsions comprising 2% or more by weight of ivermectin, which remains fully dissolved ivermectin over the time.

ivermectin
Amount of ivermectin that can be fully dissolved: at most 33 % by weight
